Reference: patent US4356185A, “Thiazoles” (John Wyeth & Brother Limited, priority 1980, dated 1982)
Where “and” joins values, the source holds several entries; their conditions need not be identical. Equal values may be shown once.

Tested on: ear edema (croton oil irritant mixture)
Experiment: anti-inflammatory activity against croton oil-induced ear edema (based on Tonelli et al), topical
Type: in vivo, Sprague-Dawley female rats
Conditions: right ear, in irritant mixture, 6 hours
Method: Compounds of formula I were tested for anti-inflammatory activity by the following procedure based on Tonelli et al, Endocrinology 77, 625 (1965):
Sprague-Dawley female rats, weighing 60 to 70 grams, are used in groups of 10. Ear edema is induced by inuncting both sides of the ear with an irritant mixture. This mixture containing 1% croton oil, 20% pyridine, 5% water and 74% diethyl ether, with or without test compound, is applied only once and only to the right ear. Six hours later the animals are sacrificed; a 9 mm diameter portion of both ears is punched out with a cork borer and weighed. The anti-inflammatory activity of the test agent is assessed by expressing the percent of the difference in average weight increase between the ears of the control groups and of the treated group. [formula]
Results found for representative compounds of formula I are tabulated below, together with results found in 3 tests for the preferred compound reported by Brown et al in J. Med. Chem.(loc-cit)namely 4-(p-chlorophenyl)-2-phenylthiazole-5-acetic acid (B): […]

Compound	% Inhibition (dose 2.5 mg)	% Inhibition (dose 5 mg)	% Inhibition (dose 50 μg) [%]	% Inhibition (dose 500 μg) [%]
O=C(O)Cc1sc(-c2ccccc2)nc1-c1ccc(Cl)cc1 [4-(p-chlorophenyl)-2-phenylthiazole-5-acetic acid, reference compound]	93% and 79% and 89%	92% and 93%		
CCCCC(=O)Oc1ccc(-c2nc(-c3ccc(Cl)cc3)c(CC(=O)O)s2)cc1 [R = COC4 H9, 4-(4-Chlorophenyl)-2-(4-Valeryloxyphenyl)thiazole-5-acetic acid]	71%	87%	41	54
CC(=O)Oc1ccc(-c2nc(-c3ccc(Cl)cc3)c(CC(=O)O)s2)cc1 [R = COCH3, 2-(4-Acetoxyphenyl)-4-(4-chlorophenyl)thiazole-5-acetic acid]	85%	100%	-14	41
